Data on six cell lines can be found in the supplement of paper PMC10307832.

Assay in all cases: relative viability (nuclei count vs DMSO), 5 days (fraction); higher = more cells survive
Compound in the assay “VX-11e + Linsitinib”: CC1=CN=C(N=C1C2=CNC(=C2)C(=O)N[C@H](CO)C3=CC(=CC=C3)Cl)NC4=C(C=C(C=C4)F)Cl [VX-11e] + C[C@]1(O)C[C@@H](c2nc(-c3ccc4ccc(-c5ccccc5)nc4c3)c3c(N)nccn32)C1 [Linsitinib] (partner 1 µM)
The gist of the method:
(§1)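 Cells from lung cancer lines were seeded into 1536-well plates and, one day later, dosed by pin tool. Treatments were either a single drug or a fixed dose of an anchor drug with five library-drug doses (not always all listed) in √10 steps. After 5 days, nuclei were stained in a one-step fixation (final 0.05% Triton X-100, 1% formaldehyde, 1 ug/ml Hoechst) and counted on 4× images, and relative viability is the treated-to-vehicle nuclei ratio, as the median of duplicate plates.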

Compound in the assay “VX-11e + OSI-027”: CC1=CN=C(N=C1C2=CNC(=C2)C(=O)N[C@H](CO)C3=CC(=CC=C3)Cl)NC4=C(C=C(C=C4)F)Cl [VX-11e] + COc1cccc2cc(-c3nc([C@H]4CC[C@H](C(=O)O)CC4)n4ncnc(N)c34)[nH]c12 [OSI-027] (partner 0.5 µM)
The gist of the method:
as §1

Compound in the assay “VX-11e + Luminespib”: CC1=CN=C(N=C1C2=CNC(=C2)C(=O)N[C@H](CO)C3=CC(=CC=C3)Cl)NC4=C(C=C(C=C4)F)Cl [VX-11e] + CCNC(=O)c1noc(-c2cc(C(C)C)c(O)cc2O)c1-c1ccc(CN2CCOCC2)cc1 [Luminespib] (partner 0.01 µM)
In short, it runs like this: as §1

Compound in the assay “VX-11e + Lapatinib”: CC1=CN=C(N=C1C2=CNC(=C2)C(=O)N[C@H](CO)C3=CC(=CC=C3)Cl)NC4=C(C=C(C=C4)F)Cl [VX-11e] + CS(=O)(=O)CCNCc1ccc(-c2ccc3ncnc(Nc4ccc(OCc5cccc(F)c5)c(Cl)c4)c3c2)o1 [Lapatinib] (partner 2 µM)
In short, it runs like this: as §1

For the cell line COR-L23, the relative viability in the assay with VX-11e + Linsitinib (first compound 0.04 µM) amounted to 1.04; with VX-11e + Linsitinib (first compound 0.1265 µM), 0.905; in the assay with VX-11e + Linsitinib (first compound 0.4 µM), 0.816; in the assay with VX-11e + Linsitinib (first compound 1.265 µM) it was 0.508; with VX-11e + Linsitinib (first compound 4 µM), 0.248; with VX-11e + OSI-027 (first compound 0.04 µM) it was 0.733. The relative viability with VX-11e + OSI-027 (first compound 0.1265 µM) was 0.591; in the assay with VX-11e + OSI-027 (first compound 0.4 µM) it was 0.579; with VX-11e + OSI-027 (first compound 1.265 µM) it was 0.347; with VX-11e + OSI-027 (first compound 4 µM), 0.185; with VX-11e + Luminespib (first compound 0.04 µM), 0.787; in the assay with VX-11e + Luminespib (first compound 0.1265 µM), 0.577. The relative viability with VX-11e + Luminespib (first compound 0.4 µM) is 0.5; with VX-11e + Luminespib (first compound 1.265 µM), 0.532; with VX-11e + Luminespib (first compound 4 µM) it was 0.234; with VX-11e + Lapatinib (first compound 0.04 µM), 1.3; with VX-11e + Lapatinib (first compound 0.1265 µM), 1; with VX-11e + Lapatinib (first compound 0.4 µM) it was 0.806. The relative viability with VX-11e + Lapatinib (first compound 1.265 µM) amounted to 0.634; in the assay with VX-11e + Lapatinib (first compound 4 µM), 0.398.

For NCI-H1755, the relative viability with VX-11e + Linsitinib (first compound 0.04 µM) turned out to be 1.03; in the assay with VX-11e + Linsitinib (first compound 0.1265 µM) it was 0.976; with VX-11e + Linsitinib (first compound 0.4 µM) it was 0.95; in the assay with VX-11e + Linsitinib (first compound 1.265 µM), 0.94; in the assay with VX-11e + Linsitinib (first compound 4 µM), 0.553; with VX-11e + OSI-027 (first compound 0.04 µM), 0.665. Also, the relative viability amounted to 0.527 with VX-11e + OSI-027 (first compound 0.1265 µM); 0.4 with VX-11e + OSI-027 (first compound 0.4 µM); 0.756 with VX-11e + OSI-027 (first compound 1.265 µM); 0.468 with VX-11e + OSI-027 (first compound 4 µM); 0.3 with VX-11e + Luminespib (first compound 0.04 µM); 0.42 in the assay with VX-11e + Luminespib (first compound 0.1265 µM). In addition, the relative viability in the assay with VX-11e + Luminespib (first compound 0.4 µM) came out at 0.479; in the assay with VX-11e + Luminespib (first compound 1.265 µM), 0.466; with VX-11e + Luminespib (first compound 4 µM), 0.324; in the assay with VX-11e + Lapatinib (first compound 0.04 µM), 1.05; in the assay with VX-11e + Lapatinib (first compound 0.1265 µM), 0.97; in the assay with VX-11e + Lapatinib (first compound 0.4 µM), 0.833. Further, the relative viability with VX-11e + Lapatinib (first compound 1.265 µM) was determined as 0.93; with VX-11e + Lapatinib (first compound 4 µM), 0.771.

For NCI-H460, the relative viability worked out at 1.17 in the assay with VX-11e + Linsitinib (first compound 0.04 µM); 0.849 with VX-11e + Linsitinib (first compound 0.1265 µM); 0.674 in the assay with VX-11e + Linsitinib (first compound 0.4 µM); 0.0925 in the assay with VX-11e + Linsitinib (first compound 1.265 µM); 0.017 with VX-11e + Linsitinib (first compound 4 µM); 0.589 with VX-11e + OSI-027 (first compound 0.04 µM). Besides, the relative viability in the assay with VX-11e + OSI-027 (first compound 0.1265 µM) came out at 0.483; in the assay with VX-11e + OSI-027 (first compound 0.4 µM) it was 0.181; with VX-11e + OSI-027 (first compound 1.265 µM), 0.0819; in the assay with VX-11e + OSI-027 (first compound 4 µM), 0.0249; with VX-11e + Luminespib (first compound 0.04 µM), 0.0317; with VX-11e + Luminespib (first compound 0.1265 µM) it was 0.0379. Also, the relative viability came out at 0.0305 with VX-11e + Luminespib (first compound 0.4 µM); 0.0413 with VX-11e + Luminespib (first compound 1.265 µM); 0.0238 in the assay with VX-11e + Luminespib (first compound 4 µM); 1.13 in the assay with VX-11e + Lapatinib (first compound 0.04 µM); 0.85 with VX-11e + Lapatinib (first compound 0.1265 µM); 0.823 in the assay with VX-11e + Lapatinib (first compound 0.4 µM). Moreover, the relative viability with VX-11e + Lapatinib (first compound 1.265 µM) amounted to 0.542; in the assay with VX-11e + Lapatinib (first compound 4 µM), 0.0703.

As to COR-L 105, the relative viability with VX-11e + Linsitinib (first compound 0.04 µM) worked out at 1.04; with VX-11e + Linsitinib (first compound 0.1265 µM) it was 0.946; in the assay with VX-11e + Linsitinib (first compound 0.4 µM), 0.568; with VX-11e + Linsitinib (first compound 1.265 µM), 0.571; with VX-11e + Linsitinib (first compound 4 µM), 0.267; in the assay with VX-11e + OSI-027 (first compound 0.04 µM), 0.541. For the same cell line, the relative viability in the assay with VX-11e + OSI-027 (first compound 0.1265 µM) is 0.802; with VX-11e + OSI-027 (first compound 0.4 µM), 0.552; with VX-11e + OSI-027 (first compound 1.265 µM), 0.326; in the assay with VX-11e + OSI-027 (first compound 4 µM), 0.254; with VX-11e + Luminespib (first compound 0.04 µM) it was 0.978; in the assay with VX-11e + Luminespib (first compound 0.1265 µM), 0.391. Besides, the relative viability with VX-11e + Luminespib (first compound 0.4 µM) turned out to be 0.825; with VX-11e + Luminespib (first compound 1.265 µM), 0.592; with VX-11e + Luminespib (first compound 4 µM) it was 0.375; with VX-11e + Lapatinib (first compound 0.04 µM) it was 0.354; in the assay with VX-11e + Lapatinib (first compound 0.1265 µM) it was 0.324; in the assay with VX-11e + Lapatinib (first compound 0.4 µM) it was 0.396. The relative viability was 0.355 with VX-11e + Lapatinib (first compound 1.265 µM) and 0.381 with VX-11e + Lapatinib (first compound 4 µM).

HCC-827: the relative viability with VX-11e + Linsitinib (first compound 0.04 µM) was determined as 0.967; with VX-11e + Linsitinib (first compound 0.1265 µM), 0.934; with VX-11e + Linsitinib (first compound 0.4 µM), 0.975; with VX-11e + Linsitinib (first compound 1.265 µM), 1.12; with VX-11e + Linsitinib (first compound 4 µM), 0.859; with VX-11e + OSI-027 (first compound 0.04 µM) it was 0.762. Further, the relative viability in the assay with VX-11e + OSI-027 (first compound 0.1265 µM) came out at 0.797; with VX-11e + OSI-027 (first compound 0.4 µM), 0.74; with VX-11e + OSI-027 (first compound 1.265 µM), 0.977; with VX-11e + OSI-027 (first compound 4 µM), 0.44; with VX-11e + Luminespib (first compound 0.04 µM) it was 0.605; with VX-11e + Luminespib (first compound 0.1265 µM), 0.422. Moreover, the relative viability with VX-11e + Luminespib (first compound 0.4 µM) amounted to 0.616; with VX-11e + Luminespib (first compound 1.265 µM) it was 0.826; with VX-11e + Luminespib (first compound 4 µM), 0.477; in the assay with VX-11e + Lapatinib (first compound 0.04 µM) it was 0.191; with VX-11e + Lapatinib (first compound 0.1265 µM) it was 0.229; with VX-11e + Lapatinib (first compound 0.4 µM), 0.206. For the same cell line, the relative viability with VX-11e + Lapatinib (first compound 1.265 µM) worked out at 0.205; in the assay with VX-11e + Lapatinib (first compound 4 µM), 0.207.

NCI-H2228: the relative viability is 0.577 with VX-11e + Linsitinib (first compound 0.04 µM); 0.692 in the assay with VX-11e + Linsitinib (first compound 0.1265 µM); 0.489 with VX-11e + Linsitinib (first compound 0.4 µM); 0.308 in the assay with VX-11e + Linsitinib (first compound 1.265 µM); 0.214 in the assay with VX-11e + Linsitinib (first compound 4 µM); 0.617 in the assay with VX-11e + OSI-027 (first compound 0.04 µM). Also, the relative viability with VX-11e + OSI-027 (first compound 0.1265 µM) was 0.54; with VX-11e + OSI-027 (first compound 1.265 µM), 0.216; in the assay with VX-11e + OSI-027 (first compound 4 µM), 0.123; with VX-11e + Luminespib (first compound 0.04 µM) it was 0.145; with VX-11e + Luminespib (first compound 0.1265 µM), 0.138; with VX-11e + Luminespib (first compound 1.265 µM), 0.148. For the same cell line, the relative viability in the assay with VX-11e + Luminespib (first compound 4 µM) amounted to 0.12; in the assay with VX-11e + Lapatinib (first compound 0.04 µM), 1.23; in the assay with VX-11e + Lapatinib (first compound 0.1265 µM), 1.17; with VX-11e + Lapatinib (first compound 0.4 µM), 0.158; with VX-11e + Lapatinib (first compound 1.265 µM), 0.691; with VX-11e + Lapatinib (first compound 4 µM), 0.309.
